The results in this text go back to patent US10752588B2 (The Broad Institute, Inc., priority 2014, dated 2020).

Experiment [1] deals with T1, human D2R/β-arrestin (Homo sapiens (Human), UniProt P14416). The experiment in a line: cell-based. Particulars: cAMP Antagonist.
For experiment [2], the target named is T1, human D2R/β-arrestin. The experiment in a line: β-Arrestin agonist assay (PathHunter). The experiment is classed as cell-based. The following applies: CHO-K1 cell line expressing human D2R/β-arrestin. The protocol:
(§1) The assays can be performed using proper detection reagents either prepared using routine methods known in the art or commercially available (e.g., PathHunter® β-Arrestin Detecting Kit (DiscoveRX)). Cells are grown to the necessary confluence and then detached. The cells are then centrifuged, washed, resuspended, and seeded into a container (e.g., 384-well plate). The cells are incubated (e.g., at 37° C., 5% CO2) for the appropriate period of time (e.g., 24 hours), before various compounds (e.g., a compound of the invention or a control compound) are added to the cells. After incubation of the cells with the compounds, detection reagents (e.g., a buffer containing Emerald II: Galactor-Star as provided DiscoveRX) are added to the cells. The read-out (e.g., luminescence, or fluorescence) is detected using standard equipment.
The detection reagent (9.6 μL, Buffer:Emerald II:Galactor-Star in a 19:5:1 ratio, i.e., 14.06 mL:3.7 mL:0.74 mL=18.5 mL) was then added to the agonist plates.

For experiment [3], the target named is T1, human D2R/β-arrestin. The experiment in a line: Gi/cAMP agonist assay (Lance Ultra cAMP, Forskolin). Type of experiment: cell-based. The following applies: CHO-K1 cell line expressing human D2R/β-arrestin. The protocol:
as §1, with “PE Lance Ultra cAMP kit (TRF0263)).” for “PathHunter® β-Arrestin Detecting Kit (DiscoveRX)).”, “Afterwards, cAMP inducing agents (e.g., Forskolin) are added to and incubated with” for “After incubation of”, “before” for “with the compounds,”, “cAMP antibody, such” for “buffer containing Emerald II: Galactor-Star”, “ULight-anti-cAMP solution)” for “provided DiscoveRX)”, “Read-out” for “The read-out”
Compounds were pin-transferred (100 nL) to the cells, and incubated for 10 min. at 37° C. […] Eu-cAMP tracer solution (100, PerkinElmer, […] in 17.64 ml kit buffer) and ULight-anti-cAMP solution (100, 120 μL antibody in 17.88 ml kit buffer) was then added to each well.

In experiment [4] the target is T1, human D2R/β-arrestin. The experiment in a line: cell-based. Particulars: β-arrestin Antagonist.
Setting [5] is: CHO-K1 cell line expressing human D2R/β-arrestin, quinpirole used as agonist.

T1 sequence (P14416 whole entry): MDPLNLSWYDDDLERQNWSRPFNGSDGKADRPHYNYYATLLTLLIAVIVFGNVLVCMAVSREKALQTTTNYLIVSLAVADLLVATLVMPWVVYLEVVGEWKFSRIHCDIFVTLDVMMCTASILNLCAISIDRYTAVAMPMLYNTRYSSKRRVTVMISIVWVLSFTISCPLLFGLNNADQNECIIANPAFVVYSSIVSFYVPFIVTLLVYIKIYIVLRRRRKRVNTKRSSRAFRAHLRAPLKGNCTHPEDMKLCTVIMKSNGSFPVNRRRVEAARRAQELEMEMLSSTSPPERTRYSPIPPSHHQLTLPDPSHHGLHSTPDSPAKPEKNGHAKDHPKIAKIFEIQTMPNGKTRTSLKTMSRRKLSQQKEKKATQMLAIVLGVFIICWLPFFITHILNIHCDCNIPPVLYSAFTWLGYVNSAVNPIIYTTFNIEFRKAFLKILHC

With `FC(F)(F)c1ccccc1OCCN1CCC(CNC(c2ccc(Cl)cc2)c2ccccn2)CC1` (centres unmarked) [Compound 120, 1-(4-chlorophenyl)-1-(pyridin-2-yl)-N-((1-(2-(2-(trifluoromethyl)phenoxy)ethyl)piperidin-4-yl)methyl)methanamine], the IC50 at human D2R/β-arrestin [1] (setting [5]) and on human D2R/β-arrestin [4] (setting [5]) was less than 0.1 µM throughout. Also, the EC50 at human D2R/β-arrestin [2] and at human D2R/β-arrestin [3] was more than 30 µM in each case.
Consider `Fc1ccc(F)c(OCCN2CCC(CNC(c3ccc(Cl)cc3)c3ccccn3)CC2)c1` (single isomer, unassigned) [Compound 89a, 1-(4-chlorophenyl)-N-((1-(2-(2,5-difluorophenoxy)ethyl)piperidin-4-yl)methyl)-1-(pyridin-2-yl)methanamine], for which the IC50 at human D2R/β-arrestin [1] (setting [5]) and at human D2R/β-arrestin [4] (setting [5]) was 0.1 to 1 µM throughout. The EC50 on human D2R/β-arrestin [2] and on human D2R/β-arrestin [3] was more than 30 µM each time.
For `COc1cccc(C(NC(=O)C2CCN(CCOc3ccccc3)CC2)c2ccccc2F)c1` (centres unmarked) [Compound 50], the results for the IC50 on human D2R/β-arrestin [1] (setting [5]) and on human D2R/β-arrestin [4] (setting [5]) were more than 30 µM and 1 to 10 µM, respectively. Besides, the EC50 on human D2R/β-arrestin [2] was more than 30 µM; at human D2R/β-arrestin [3], 0.1 to 1 µM.
On to `CC1(CNC(c2ccc(F)cc2)c2ccccn2)CCN(CCOc2ccccc2C(F)(F)F)CC1` (centres unmarked) [Compound 101, 1-(4-fluorophenyl)-N-((4-methyl-1-(2-(2-(trifluoromethyl)phenoxy)ethyl)piperidin-4-yl)methyl)-1-(pyridin-2-yl)methanamine], for which the results for the IC50 on human D2R/β-arrestin [1] (setting [5]) and at human D2R/β-arrestin [4] (setting [5]) were less than 0.1 µM and 0.1 to 1 µM, respectively. Moreover, the EC50 at human D2R/β-arrestin [2] and on human D2R/β-arrestin [3] was more than 30 µM each time.
In the case of `COc1cccc(C(NC(=O)C2CCN(CCOc3ccc4ncsc4c3)CC2)c2ccccn2)c1` (centres unmarked) [Compound 82, 1-(2-(benzo[d]thiazol-6-yloxy)ethyl)-N-((3-methoxyphenyl)(pyridin-2-yl)methyl)piperidine-4-carboxamide], the results for the IC50 on human D2R/β-arrestin [1] (setting [5]) and on human D2R/β-arrestin [4] (setting [5]) were 1 to 10 µM and 10 to 30 µM, respectively. Moreover, the EC50 at human D2R/β-arrestin [2] and on human D2R/β-arrestin [3] was more than 30 µM in each case.
With `FC(F)(F)CN(CC1CCN(CCOc2ccccc2)CC1)C(c1ccc(Cl)cc1)c1ccccn1` (single isomer, unassigned) [Compound 125a, N-((4-chlorophenyl)(pyridin-2-yl)methyl)-2,2,2-trifluoro-N-((1-(2-phenoxyethyl)piperidin-4-yl)methyl)ethanamine], the figures for the IC50 on human D2R/β-arrestin [1] (setting [5]) and at human D2R/β-arrestin [4] (setting [5]) were more than 30 µM and 1 to 10 µM, respectively. For the same molecule, the values for the EC50 on human D2R/β-arrestin [2] and on human D2R/β-arrestin [3] were more than 30 µM and 0.1 to 1 µM, respectively.
As for `Fc1ccc(F)c(OCCN2CCC(CNC(c3ccc(Cl)cc3)c3ccccn3)CC2)c1` (single isomer, unassigned) [Compound 89b, 1-(4-chlorophenyl)-N-((1-(2-(2,5-difluorophenoxy)ethyl)piperidin-4-yl)methyl)-1-(pyridin-2-yl)methanamine], the half-maximal inhibitory concentration (IC50) was in the range of 10 to 30 µM on human D2R/β-arrestin [1] (setting [5]) and 1 to 10 µM at human D2R/β-arrestin [4] (setting [5]). For the same molecule, the EC50 is more than 30 µM on human D2R/β-arrestin [2] and 0.1 to 1 µM at human D2R/β-arrestin [3].
Regarding `CN(CC1CCN(CCOc2ccccc2F)CC1)C(c1ccc2c(c1)OCO2)c1ccccn1` (single isomer, unassigned) [Compound 138a, 1-(benzo[d][1,3]dioxol-5-yl)-N-((1-(2-(2-fluorophenoxy)ethyl)piperidin-4-yl)methyl)-N-methyl-1-(pyridin-2-yl)methanamine], the results for the IC50 at human D2R/β-arrestin [1] (setting [5]) and on human D2R/β-arrestin [4] (setting [5]) were more than 30 µM and 0.1 to 1 µM, respectively. Besides, the EC50 was 0.1 to 1 µM on human D2R/β-arrestin [2] and less than 0.1 µM on human D2R/β-arrestin [3].
Take `O=C(NC(c1ccc2c(c1)OC(F)(F)O2)c1ccccn1)C1CCN(CCOc2ccc(F)cc2F)CC1` (single isomer, unassigned) [Compound 130a, N-((2,2-difluorobenzo[d][1,3]dioxol-5-yl)(pyridin-2-yl)methyl)-1-(2-(2,4-difluorophenoxy)ethyl)piperidine-4-carboxamide]: the IC50 at human D2R/β-arrestin [1] (setting [5]) lay in the range of 0.1 to 1 µM; at human D2R/β-arrestin [4] (setting [5]) it was 1 to 10 µM. Also, the EC50 at human D2R/β-arrestin [2] and at human D2R/β-arrestin [3] was more than 30 µM in each case.
For the molecule `CC(C)(COc1ccccc1)N1CCC(C(=O)NC(c2ccc(F)cc2)c2ccccn2)CC1` (centres unmarked) [Compound 58], the IC50 on human D2R/β-arrestin [1] (setting [5]) and at human D2R/β-arrestin [4] (setting [5]) was 10 to 30 µM in each case. In addition, the EC50 on human D2R/β-arrestin [2] and on human D2R/β-arrestin [3] was more than 30 µM each time.
As for `Fc1ccccc1OCCN1CCC(CNC(c2ccc(Cl)cc2)c2ccccc2F)CC1` (centres unmarked) [Compound 87, 1-(4-chlorophenyl)-N-((1-(2-(2-fluorophenoxy)ethyl)piperidin-4-yl)methyl)-1-(2-fluorophenyl)methanamine], the IC50 at human D2R/β-arrestin [1] (setting [5]) and on human D2R/β-arrestin [4] (setting [5]) was 0.1 to 1 µM throughout. Besides, the EC50 at human D2R/β-arrestin [2] and at human D2R/β-arrestin [3] was more than 30 µM each time.
`Fc1ccc(OCCN2CCC(CNC(c3ccc(Cl)cc3)c3ccccn3)CC2)cc1` (centres unmarked) [Compound 132, 1-(4-chlorophenyl)-N-((1-(2-(4-fluorophenoxy)ethyl)piperidin-4-yl)methyl)-1-(pyridin-2-yl)methanamine]: the IC50 at human D2R/β-arrestin [1] (setting [5]) and on human D2R/β-arrestin [4] (setting [5]) was 1 to 10 µM each time. In addition, the EC50 on human D2R/β-arrestin [2] and on human D2R/β-arrestin [3] was more than 30 µM in each case.
As for `O=C(NC(c1ccc(Cl)cc1)c1ccccn1)C1CCN(CCOc2ccc3ncsc3c2)CC1` (centres unmarked) [Compound 19, 1-(2-(Benzo[d]thiazol-6-yloxy)ethyl)-N-((4-chlorophenyl)(pyridin-2-yl)methyl) piperidine-4-carboxamide], the IC50 on human D2R/β-arrestin [1] (setting [5]) is more than 30 µM; at human D2R/β-arrestin [4] (setting [5]), 1 to 10 µM. The values for the EC50 on human D2R/β-arrestin [2] and on human D2R/β-arrestin [3] were more than 30 µM and 0.1 to 1 µM, respectively.
For the molecule `CC(C)N(CC1CCN(CCOc2ccccc2)CC1)C(c1ccc(Cl)cc1)c1ccccn1` (single isomer, unassigned) [Compound 103a, N-((4-chlorophenyl)(pyridin-2-yl)methyl)-N-((1-(2-phenoxyethyl)piperidin-4-yl)methyl)propan-2-amine], the IC50 against human D2R/β-arrestin [1] was less than 0.1 µM; against human D2R/β-arrestin [4], 0.1 to 1 µM. Moreover, the EC50 on human D2R/β-arrestin [2] was more than 30 µM; at human D2R/β-arrestin [3], 0.1 to 1 µM.
In the case of `O=C(NC(c1ccc(F)cc1)c1ccc(F)cc1)C1CCN(CCOc2ccccc2)CC1` [Compound 47, N-(bis(4-fluorophenyl)methyl)-1-(2-phenoxyethyl)piperidine-4-carboxamide], the IC50 on human D2R/β-arrestin [1] (setting [5]) fell in the range of 0.1 to 1 µM; on human D2R/β-arrestin [4] (setting [5]), 1 to 10 µM. The EC50 at human D2R/β-arrestin [2] and on human D2R/β-arrestin [3] was more than 30 µM each time.
For `O=C(NC(c1ccc(Cl)cc1)c1ccccn1)C1CCN(CCOc2cccc(Cl)c2)CC1` (centres unmarked) [Compound 1, 1-(2-(3-chlorophenoxy)ethyl)-N-((4-chlorophenyl)(pyridin-2-yl)methyl)piperidine-4-carboxamide], the IC50 at human D2R/β-arrestin [1] (setting [5]) is more than 30 µM; on human D2R/β-arrestin [4] (setting [5]), 0.1 to 1 µM. Besides, the EC50 at human D2R/β-arrestin [2] was more than 30 µM; at human D2R/β-arrestin [3] it was less than 0.1 µM.
For the molecule `Fc1ccccc1C(NCC1CCN(CCOc2ccccc2)CC1)c1ccc(Cl)cc1` (centres unmarked) [Compound 81, 1-(4-chlorophenyl)-1-(2-fluorophenyl)-N-((1-(2-phenoxyethyl)piperidin-4-yl)methyl)methanamine], the IC50 on human D2R/β-arrestin [1] (setting [5]) and on human D2R/β-arrestin [4] (setting [5]) was 0.1 to 1 µM throughout. Also, the EC50 on human D2R/β-arrestin [2] and at human D2R/β-arrestin [3] was more than 30 µM each time.
In the case of `O=C(NC(c1ccc(Cl)cc1)c1ccccn1)C1CCN(CCOc2ccccc2OC(F)(F)F)CC1` (centres unmarked) [Compound 68, N-((4-chlorophenyl)(pyridin-2-yl)methyl)-1-(2-(2-(trifluoromethoxy)phenoxy)ethyl) piperidine-4-carboxamide], the IC50 on human D2R/β-arrestin [1] (setting [5]) and on human D2R/β-arrestin [4] (setting [5]) was less than 0.1 µM throughout. Besides, the EC50 on human D2R/β-arrestin [2] and at human D2R/β-arrestin [3] was more than 30 µM in each case.
With `O=C(NC(c1ccc(F)cc1)c1ccccn1)C1CCN(CC2Cc3ccccc3C2)CC1` (centres unmarked) [Compound 61, 1-((2,3-dihydro-1H-inden-2-yl)methyl)-N-((4-fluorophenyl)(pyridin-2-yl)methyl)piperidine-4-carboxamide], the IC50 on human D2R/β-arrestin [1] (setting [5]) and on human D2R/β-arrestin [4] (setting [5]) was 10 to 30 µM throughout. The EC50 at human D2R/β-arrestin [2] and on human D2R/β-arrestin [3] was more than 30 µM each time.
Consider `CC1(CNC(c2ccc(F)cc2)c2ccccn2)CCN(CCOc2ccccc2C(F)(F)F)CC1` (single isomer, unassigned) [Compound 101a, 1-(4-fluorophenyl)-N-((4-methyl-1-(2-(2-(trifluoromethyl)phenoxy)ethyl)piperidin-4-yl)methyl)-1-(pyridin-2-yl)methanamine], for which the IC50 on human D2R/β-arrestin [1] (setting [5]) and on human D2R/β-arrestin [4] (setting [5]) was 0.1 to 1 µM each time. For the same molecule, the EC50 on human D2R/β-arrestin [2] and at human D2R/β-arrestin [3] was more than 30 µM each time.

The term IC50 denotes the concentration at which inhibition is half-maximal. The low end stands for inhibition by little substance, the high end for a need for much substance. The EC50 is the concentration needed to bring the measured effect to its halfway point. Low values mean greater potency, high ones weaker potency.
